Data: patent publication US9102701B2, “17-hydroxy-17-pentafluoroethyl-estra-4,9(10)-diene-11-ethynylphenyl derivatives, methods for the production thereof and use thereof for treating diseases” (Bayer Intellectual Property GmbH, priority 2009, dated 2015)
pIC50: −log10 of the molar value. Read-outs that look alike come from different tables or passages of the source.

Tests used:
[1] = target: T1, human progesterone receptor B (Homo sapiens, UniProt P06401); assay: Progesterone receptor-antagonistic action in stably transfected SK-N-MC cells, PR-B, MMTV-LUC reporter; assay type: cell-based
T1 construct: expressed in transfected cells; host or cells: SK-N-MC human neuroblastoma cells, stably transfected with pRChPR-B-neo and pMMTV-LUC
T1 sequence (P06401 1-933): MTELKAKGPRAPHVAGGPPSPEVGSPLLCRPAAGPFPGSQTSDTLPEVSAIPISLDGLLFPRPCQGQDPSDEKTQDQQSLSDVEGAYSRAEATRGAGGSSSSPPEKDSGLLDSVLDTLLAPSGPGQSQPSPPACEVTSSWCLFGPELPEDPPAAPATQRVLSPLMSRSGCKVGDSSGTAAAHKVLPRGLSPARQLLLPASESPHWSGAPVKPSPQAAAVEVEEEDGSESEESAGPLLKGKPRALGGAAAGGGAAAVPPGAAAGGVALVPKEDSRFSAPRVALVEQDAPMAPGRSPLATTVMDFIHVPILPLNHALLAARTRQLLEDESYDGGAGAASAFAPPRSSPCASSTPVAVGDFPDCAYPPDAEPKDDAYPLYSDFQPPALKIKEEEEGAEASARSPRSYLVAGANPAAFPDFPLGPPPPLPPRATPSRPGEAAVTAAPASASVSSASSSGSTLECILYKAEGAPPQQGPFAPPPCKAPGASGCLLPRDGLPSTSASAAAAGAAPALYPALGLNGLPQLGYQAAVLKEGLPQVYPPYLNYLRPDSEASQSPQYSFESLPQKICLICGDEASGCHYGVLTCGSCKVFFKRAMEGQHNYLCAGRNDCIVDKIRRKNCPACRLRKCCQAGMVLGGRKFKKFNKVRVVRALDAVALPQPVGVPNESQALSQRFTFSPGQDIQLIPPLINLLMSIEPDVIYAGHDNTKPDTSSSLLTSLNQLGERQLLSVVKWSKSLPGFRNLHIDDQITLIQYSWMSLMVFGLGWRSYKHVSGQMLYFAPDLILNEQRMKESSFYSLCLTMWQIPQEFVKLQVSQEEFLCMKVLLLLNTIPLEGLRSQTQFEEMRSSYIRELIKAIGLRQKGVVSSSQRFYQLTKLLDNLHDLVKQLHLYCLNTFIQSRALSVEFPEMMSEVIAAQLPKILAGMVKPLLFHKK
Description: (§1) Determination of Progesterone Receptor-Antagonistic Action in Stable Transfectants of Human Neuroblastoma Cells (SK-N-MC Cells) with the Human Progesterone a or Progesterone B Receptor and an MN-LUC Reporter Construct
(§2) SK-N-MC cells (human neuroblastoma cells) which have been stably transfected with plasmids expressing the human progesterone receptor B (pRChPR-B-neo) or the human progesterone receptor A (pRChPR-A-neo) and a reporter construct (pMMTV-LUC) were incubated for 24 hours either in the absence (negative control) or in the presence of ascending amounts of the particular test compound (0.01 nmol/l, 0.1 nmol/l, 1 nmol/l, 10 nmol/l, 100 nmol/l and […]), in order to determine the agonistic efficacy. As a positive control of the reporter gene induction, the cells were treated with the synthetic gestagen promegestone (0.01 nmol/l, 0.1 nmol/l, 1 nmol/l, 10 nmol/l, 100 nmol/l and […]). To determine the antagonistic activity, the cells were treated with 0.1 nmol/l promegestone and additionally with ascending amounts of the particular test compound (0.01 nmol/l, 0.1 nmol/l, 1 nmol/l, 10 nmol/l, 100 nmol/l and […]). The activity of the reporter gene LUC (LUC=luciferase) was determined in the cell lysates and measured as RLU (relative light units). All measurements are reported as % efficacy and as EC50 and IC50 concentrations.

[2] = target: T2, human progesterone receptor A (Homo sapiens, UniProt P06401); assay: Progesterone receptor-antagonistic action in stably transfected SK-N-MC cells, PR-A, MMTV-LUC reporter; assay type: cell-based
T2 construct: expressed in transfected cells; host or cells: SK-N-MC human neuroblastoma cells, stably transfected with pRChPR-A-neo and pMMTV-LUC
T2 sequence (P06401 1-769 isoform P06401-2): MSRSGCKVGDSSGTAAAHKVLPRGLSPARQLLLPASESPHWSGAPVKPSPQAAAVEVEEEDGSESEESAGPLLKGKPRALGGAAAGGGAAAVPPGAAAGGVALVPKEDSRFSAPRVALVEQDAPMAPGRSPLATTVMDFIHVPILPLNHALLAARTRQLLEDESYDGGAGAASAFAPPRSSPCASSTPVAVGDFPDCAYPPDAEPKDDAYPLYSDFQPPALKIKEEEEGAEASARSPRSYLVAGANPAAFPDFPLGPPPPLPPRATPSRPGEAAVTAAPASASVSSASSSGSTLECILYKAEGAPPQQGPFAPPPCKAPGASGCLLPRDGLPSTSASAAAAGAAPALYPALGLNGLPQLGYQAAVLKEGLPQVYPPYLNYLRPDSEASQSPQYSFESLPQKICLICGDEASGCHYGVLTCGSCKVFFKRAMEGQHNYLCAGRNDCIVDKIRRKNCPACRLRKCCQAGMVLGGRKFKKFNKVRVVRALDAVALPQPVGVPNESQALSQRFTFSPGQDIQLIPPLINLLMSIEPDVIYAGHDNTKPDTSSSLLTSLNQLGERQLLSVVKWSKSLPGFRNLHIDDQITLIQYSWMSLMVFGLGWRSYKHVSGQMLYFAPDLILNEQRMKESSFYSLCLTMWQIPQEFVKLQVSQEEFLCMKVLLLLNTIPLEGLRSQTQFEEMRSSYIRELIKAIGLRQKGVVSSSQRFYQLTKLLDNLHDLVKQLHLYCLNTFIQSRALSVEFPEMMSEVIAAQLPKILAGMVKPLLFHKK
Description: as §1, §2

`COC(=O)c1cccc(C=CC#Cc2ccc([C@H]3C[C@@]4(C)C(CC[C@@]4(O)C(F)(F)C(F)(F)F)C4CCC5=CC(=O)CCC5=C43)cc2)c1` (mixture of isomers) [Example 12, 3-{(E/Z)-4-[4-((8S,11R,13S,14S,17S)-17-hydroxy-13-methyl-3-oxo-17-pentafluoroethyl-2,3,6,7,8,11,12,13,14,15,16,17-dodecahydro-1H-cyclopenta[a]phenanthren-1′-yl)phenyl]but-1-en-3-ynyl}benzoic acid methyl ester] showed a pIC50 ([1]; read-out: IC50 PR-B) of 8.70 and a pIC50 ([2]; read-out: IC50 PR-A) of 9.00.

`CC(C)CO/N=C/C#Cc1ccc([C@H]2C[C@@]3(C)C(CC[C@@]3(O)C(F)(F)C(F)(F)F)C3CCC4=CC(=O)CCC4=C32)cc1` (mixture of isomers) [Example 26, (E/Z)-[4-((8S,11R,13S,14S,17S)-17-hydroxy-13-methyl-3-oxo-17-pentafluoroethyl-2,3,6,7,8,11,12,13,14,15,16,17-dodecahydro-1H-cyclopenta[a]phenanthren-1′-yl)phenyl]propynal O-isobutyl oxime] was tested, and the pIC50 ([1]; read-out: IC50 PR-B) was 10.10 and the pIC50 ([2]; read-out: IC50 PR-A) was 10.10.

For `C[C@]12C[C@H](c3ccc(C#CC=NOCc4ccc(Cl)c(Cl)c4)cc3)C3=C4CCC(=O)C=C4CCC3C1CC[C@@]2(O)C(F)(F)C(F)(F)F` (mixture of isomers) [Example 27, (E/Z)-[4-((8S,11R,13S,14S,17S)-17-hydroxy-13-methyl-3-oxo-17-pentafluoroethyl-2,3,6,7,8,11,12,13,14,15,16,17-dodecahydro-1H-cyclopenta[a]phenanthren-1′-yl)phenyl]propynal O-(3,4-dichlorobenzyl) oxime], the pIC50 ([1]; read-out: IC50 PR-B) was 8.70 and the pIC50 ([2]; read-out: IC50 PR-A) was 9.01.

In the case of `COC(=O)C#Cc1ccc([C@H]2C[C@@]3(C)C(CC[C@@]3(O)C(F)(F)C(F)(F)F)C3CCC4=CC(=O)CCC4=C32)cc1` (stereo partly drawn) [Example 3, [4-((8S,11R,13S,14S,17S)-17-hydroxy-13-methyl-3-oxo-17-pentafluoroethyl-2,3,6,7,8,11,12,13,14,15,16,17-dodecahydro-1H-cyclopenta[a]phenanthren-1′-yl)phenyl]propynoic acid methyl ester], the pIC50 [1] was 8.92 and the pIC50 [2] was 8.74.

Compound `CCOC(=O)/C=C/C#Cc1ccc([C@H]2C[C@@]3(C)C(CC[C@@]3(O)C(F)(F)C(F)(F)F)C3CCC4=CC(=O)CCC4=C32)cc1` (stereo partly drawn) [Example 6, (E)-5-[4-((8S,11R,13S,14S,17S)-17-hydroxy-13-methyl-3-oxo-17-pentafluoroethyl-2,3,6,7,8,11,12,13,14,15,16,17-dodecahydro-1H-cyclopenta[a]phenanthren-1′-yl)phenyl]pent-2-en-4-ynoic acid ethyl ester] has a pIC50 ([1]; read-out: IC50 PR-B) of 7.92 and a pIC50 ([2]; read-out: IC50 PR-A) of 7.89.

`CCOC(=O)C=CC=CC#Cc1ccc([C@H]2C[C@@]3(C)C(CC[C@@]3(O)C(F)(F)C(F)(F)F)C3CCC4=CC(=O)CCC4=C32)cc1` (stereo partly drawn) [Example 7, 7-(2E/Z,4E/Z)-[4-((8S,11R,13S,14S,17S)-17-hydroxy-13-methyl-3-oxo-17-pentafluoroethyl-2,3,6,7,8,11,12,13,14,15,16,17-dodecahydro-1H-cyclopenta[a]phenanthren-1′-yl)phenyl]hepta-2,4-dien-6-ynoic acid ethyl ester] showed a pIC50 ([1]; read-out: IC50 PR-B) of 9.05 and a pIC50 ([2]; read-out: IC50 PR-A) of 9.10.

For `CC(C)(C)OC(=O)COCC#Cc1ccc([C@H]2C[C@@]3(C)[C@@H](CC[C@@]3(O)C(F)(F)C(F)(F)F)[C@@H]3CCC4=CC(=O)CCC4=C32)cc1` [Example 8, {3-[4-((8S,11R,13S,14S,17S)-17-hydroxy-13-methyl-3-oxo-17-pentafluoroethyl-2,3,6,7,8,11,12,13,14,15,16,17-dodecahydro-1H-cyclopenta[a]phenanthren-11-yl)phenyl]prop-2-ynyloxy}acetic acid tert-butyl ester], the pIC50 ([1]; read-out: IC50 PR-B) was 9.39 and the pIC50 ([2]; read-out: IC50 PR-A) was 9.49.

Work on `COC(=O)COCC#Cc1ccc([C@H]2C[C@@]3(C)[C@@H](CC[C@@]3(O)C(F)(F)C(F)(F)F)[C@@H]3CCC4=CC(=O)CCC4=C32)cc1` [Example 9, {3-[4-((8S,11R,13S,14S,17S)-17-hydroxy-13-methyl-3-oxo-17-pentafluoroethyl-2,3,6,7,8,11,12,13,14,15,16,17-dodecahydro-1H-cyclopenta[a]phenanthren-11-yl)phenyl]prop-2-ynyloxy}acetic acid methyl ester] yielded a pIC50 ([1]; read-out: IC50 PR-B) of 8.00 and a pIC50 ([2]; read-out: IC50 PR-A) of 8.09.

For `C[C@]12C[C@H](c3ccc(C#CCOCC(=O)O)cc3)C3=C4CCC(=O)C=C4CCC3C1CC[C@@]2(O)C(F)(F)C(F)(F)F` (stereo partly drawn) [Example 10, {3-[4-((8S,11R,13S,14S,17S)-17-hydroxy-13-methyl-3-oxo-17-pentafluoroethyl-2,3,6,7,8,11,12,13,14,15,16,17-dodecahydro-1H-cyclopenta[a]phenanthren-1′-yl)phenyl]prop-2-ynyloxy}acetic acid], the pIC50 ([1]; read-out: IC50 PR-B) was 8.00 and the pIC50 ([2]; read-out: IC50 PR-A) was 8.05.

`C[C@]12C[C@H](c3ccc(C#CCOCC#N)cc3)C3=C4CCC(=O)C=C4CCC3C1CC[C@@]2(O)C(F)(F)C(F)(F)F` (stereo partly drawn) [Example 14, {3-[4-((8S,11R,13S,14S,17S)-17-hydroxy-13-methyl-3-oxo-17-pentafluoroethyl-2,3,6,7,8,11,12,13,14,15,16,17-dodecahydro-1H-cyclopenta[a]phenanthren-1′-yl)phenyl]prop-2-ynyloxy}acetonitrile] was tested, and the pIC50 ([1]; read-out: IC50 PR-B) was 10.00 and the pIC50 ([2]; read-out: IC50 PR-A) was 10.00.

`COC(=O)c1ccc(C#Cc2ccc([C@H]3C[C@@]4(C)[C@@H](CC[C@@]4(O)C(F)(F)C(F)(F)F)[C@@H]4CCC5=CC(=O)CCC5=C43)cc2)cc1` [Example 15, 4-[4-((8S,11R,13S,14S,17S)-17-hydroxy-13-methyl-3-oxo-17-pentafluoroethyl-2,3,6,7,8,11,12,13,14,15,16,17-dodecahydro-1H-cyclopenta[a]phenanthren-11-yl)phenylethynyl]benzoic acid methyl ester] showed a pIC50 ([1]; read-out: IC50 PR-B) of 9.00 and a pIC50 ([2]; read-out: IC50 PR-A) of 9.15.

With `C[C@]12C[C@H](c3ccc(C#CCOCc4nnn[nH]4)cc3)C3=C4CCC(=O)C=C4CC[C@H]3[C@@H]1CC[C@@]2(O)C(F)(F)C(F)(F)F` [Example 18, (8S,11R,13S,14S,17S)-17-hydroxy-13-methyl-17-pentafluoroethyl-11-{4-[3-(1H-tetrazol-5-ylmethoxy)prop-1-yn-1-yl]phenyl}-1,2,6,7,8,11,12,13,14,15,16,17-dodecahydrocyclopenta[a]phenanthren-3-one] the pIC50 ([1]; read-out: IC50 PR-B) was 8.30 and the pIC50 ([2]; read-out: IC50 PR-A) was 8.10.
